Tests used:
[1] = DSC of thermal behaviour of nanoparticles; format: physicochemical
[2] = Curcumin release in simulated gastric fluid (SGF); format: physicochemical; conditions: pH 2.0, pepsin, 37℃, 100 rpm, sampling to 90 min

- characteristic decomposition peak of curcumin [1]: 179.2 °C
- curcumin release rate [2]: 60.5%
Structure (SMILES): COc1cc(/C=C/C(=O)CC(=O)/C=C/c2ccc(O)c(OC)c2)ccc1O [Cur, 姜黄素]
